Reference: PMC3638593, “1,4-dihydroxy-2-naphthoic Acid Induces Apoptosis in Human Keratinocyte: Potential Application for Psoriasis Treatment” (Evidence-based Complementary and Alternative Medicine : eCAM, 2013)
Values joined by “and” are separate entries in the source; they are usually repeats but may differ in a detail not shown here. Equal entries are not always repeated. Where two headings read alike, the source gives them in different places.

Experiments:
Format in all cases: cell-based, human
[1] = system: HaCaT cells; assay: TUNEL assay, flow cytometry; settings: 24 h
Description: After DHNA treatment, HaCaT cells were collected and washed and subsequent steps were following the protocol of In Situ Cell Death Detection kit, Fluorescein (Roche Applied Science). Fluorescein-labeled DNA strand breaks were detected by flow cytometry. The percentage of hypodiploid (fragmented) nuclei reflecting relative proportion of apoptotic cells was analyzed by WinMDI 2.9.

[2] = system: IL-1α release from NCTC 2544 cells; assay: IL-1α release assay (ELISA)
Description: NCTC 2544 cells were seeded and treated with various concentrations of DHNA or dithranol for 72 h. After incubation, the microplate was centrifuged and conditioned medium was collected to determine the extracellular IL-1α (IL-1α release) using an IL-1α ELISA kit (Diaclone Research, France). All other steps were then according to the manufacturer's protocol. Results were expressed in pg/mL.

[3] = system: NCTC 2544 cells; assay: Proliferation assay (sulphorhodamine B) on NCTC 2544; settings: for IC50: Homo sapiens, read-out: IC50 on growth
Source text: (§1) The spontaneously immortalized human epidermal keratinocyte HaCaT cells were purchased from China Centre for Type Culture Collection, Wuhan, China. The human foreskin fibroblast Hs-68 cells were purchased from the American Type Culture Collection (Manassas, VA, USA). The human undifferentiated keratinocyte NCTC 2544 cells were provided by Interlab Cell Line Collection (Genoa, Italy) and the immortalized human epidermal melanocyte PIG1 cells were a gift from Dr Caroline Le Poole (Loyola University Chicago, Maywood, IL, USA). HaCaT and Hs-68 cells were maintained in DMEM, NCTC 2544 in RPMI 1640 and PIG1 cells in Medium 254 with Human Melanocyte Growth Supplement-2, respectively. All cells were cultured in complete medium containing 10% FBS, 100 μg/mL of streptomycin, and 100 U/mL of penicillin (Gibco Laboratories) at 37°C in a humidified atmosphere of 5% CO2. Cell culture experiments were carried out at 60–80% confluent.
(§2) The ethyl acetate extract (EA) of Rubia cordifolia L. was isolated as described. 1,4-dihydroxy-2-naphthoic acid (98%), dithranol (≥90%), and EA were dissolved in DMSO as stock. All cells were seeded and treated with various concentrations of DHNA, dithranol or EA. After treatment, cells were fixed with cold 50% trichloroacetic acid and incubated 1 h at 4°C. Cell was then washed with deionized water, air-dried, and stained with 0.4% (w/v) sulphorhodamine B for 30 min at room temperature. Unincorporated dye was removed with 1% acetic acid wash and the cell was again air-dried. Incorporated dye was then solubilized in 10 mM Tris base and absorbance was measured at 565/690 nm using a Sunrise microplate spectrophotometer (Tecan, Switzerland). IC50 were determined using GraphPad Prism 5.0 (GraphPad Software, San Diego, CA, USA).

[4] = system: HaCaT cells; assay: JC-1 staining, mitochondrial membrane potential
Description: After DHNA treatment, HaCaT cells were harvested and washed with PBS. Cells were then incubated in 1.5 μM JC-1 (5,5′,6,6′-tetrachloro-1,1′,3,3′-tetraethylbenzimidazolylcarbocyanine iodide, Molecular Probes) in PBS at 37°C for 15 min in the dark. Thereafter cells were washed, resuspended in PBS and then immediately analyzed on the FACSCanto flow cytometer. If mitochondrial membrane potential (MMP) depolarizes, JC-1 becomes a monomer and emits green fluorescence; when MMP polarizes, JC-1 becomes a polymer and emits red fluorescence. It indicates mitochondria depolarization by a decrease in red/green fluorescence intensity ratio.

[5] = system: HaCaT cells; assay: Proliferation assay (sulphorhodamine B) on HaCaT; settings: for IC50: Homo sapiens, read-out: IC50 on growth
Source text: as §1, §2

[6] = system: HaCaT cells; assay: DNA fragmentation, Cell Death Detection ELISAplus; settings: 240 μM (49.01 μg/mL)
Description: After incubation of HaCaT cells with DHNA, subsequent experimental steps were following the protocol of the Cell Death Detection ELISA^plus (Roche Applied Science, Basel, Switzerland). Absorbance was measured at 405/490 nm by the Sunrise microplate spectrophotometer. Enrichment of mono- and oligonucleosomes (cytoplasmic histone-associated DNA fragments) into the cytoplasm was calculated as absorbance of treatment cells/absorbance of control (enrichment factor) which was used as a parameter of apoptosis.

[7] = system: HaCaT cells; assay: Annexin V/propidium iodide staining, flow cytometry; settings: for viability at 30 µM / viability at 60 µM / viability at 120 µM / viability at 240 µM: Homo sapiens, HaCaT, read-out: viable cells (FITC−/PI−, lower left)
Description: After DHNA treatment, HaCaT cells were resuspended in annexin V binding buffer (10 mM HEPES, 140 mM NaCl, and 2.5 mM CaCl2, pH 7.4) and then incubated with FITC-conjugated annexin V (Biosource International, Inc., USA), and 0.5 μg/mL propidium iodide (PI) for 15 min at room temperature in the dark. Cells were analyzed on a FACSCanto flow cytometer (BD Biosciences, San Jose, CA, USA) immediately and then analyzed using WinMDI 2.9 (developed by Dr. J. Trotter, Scripps Institute, La Jolla, CA, USA). The total number of early (FITC+/PI−) and late (FITC+/PI+) apoptotic cells was assessed. In another experiment, HaCaT cells were preincubated with 40 μM pan-caspase inhibitor Z-VAD-FMK (BD Pharmingen, San Diego, CA, USA) for 1 h before exposure to DHNA.

`O=C(O)c1cc(O)c2ccccc2c1O` [DHNA, 1,4-dihydroxy-2-naphthoic acid] was tested, and the TUNEL positive cells ([1]; 30 μM/6.13 μg/mL) was 15.8%, the TUNEL positive cells ([1]; 240 μM/49.01 μg/mL) was 92.7% and the “IL-1α release at IC50 on NCTC 2544 keratinocytes” value ([2]; 46.80 μM or 9.56 μg/mL, 72 h) was “no significant IL-1α was released”. The “higher concentration needed for IL-1α release than dithranol” value ([2]; NCTC 2544, 72 h, DHNA versus dithranol) was ~ 30 times, the “concentration at which IL-1α release is significantly induced” value ([2]; NCTC 2544, 72 h, versus vehicle control) was 60 μM and 12.25 μg/mL and the IC50 ([3]; NCTC 2544, incubation 48 h) was 81.4 µM and 16.6 µg/mL. The IC50 ([3]; NCTC 2544, incubation 72 h) was 46.8 µM and 9.56 µg/mL, the “less potent than dithranol in inhibiting keratinocytes growth” value ([3]; NCTC 2544, compared with dithranol) was ~ 12 times and the “MMP (red/green JC-1 fluorescence ratio) compared with vehicle control” value (“MMP (red/green JC-1 fluorescence ratio)” below) ([4]; 30 μM/6.13 μg/mL, 24 h) was 103.3%. For the same compound, the “MMP (red/green JC-1 fluorescence ratio)” value ([4]; 30 μM/6.13 μg/mL, 48 h) was 95.5%, the “MMP (red/green JC-1 fluorescence ratio)” value ([4]; 240 μM/49.01 μg/mL, 24 h) was 35.4% and the “MMP (red/green JC-1 fluorescence ratio)” value ([4]; 240 μM/49.01 μg/mL, 48 h) was 29.2%. For the same compound, the IC50 ([5]; incubation 48 h) was 111 µM and 22.8 µg/mL, the IC50 ([5]; incubation 72 h) was 38.9 µM and 7.95 µg/mL and the “less potent than dithranol in inhibiting keratinocytes growth” value ([5]; compared with dithranol) was ~ 4 times. The “increase of DNA fragmentation compared with vehicle control” value ([6]; 24 h) was “approximately 3.4 folds”, the “increase of DNA fragmentation compared with vehicle control” value ([6]; 48 h) was about 5.2 folds and the “total apoptotic fraction (early plus late apoptotic cells)” value (“total apoptotic fraction” below) ([7]; 30 μM/6.13 μg/mL, 9 h) was 10.4%. The “total apoptotic fraction” value ([7]; 30 μM/6.13 μg/mL, 24 h) was 13.7%, the “total apoptotic fraction” value ([7]; 240 μM/49.01 μg/mL, 9 h) was 45.5% and the “total apoptotic fraction” value ([7]; 240 μM/49.01 μg/mL, 24 h) was 89.7%. The viability at 30 µM ([7]; 9 h) was 88.9%, the viability at 30 µM ([7]; 24 h) was 85% and the viability at 60 µM ([7]; 9 h) was 86.2%. The viability at 60 µM ([7]; 24 h) was 77.5%, the viability at 120 µM ([7]; 9 h) was 81.8% and the viability at 120 µM ([7]; 24 h) was 50.2%. For the same compound, the viability at 240 µM ([7]; 9 h) was 44.3% and the viability at 240 µM ([7]; 24 h) was 8.8%.
